Results as given in US8455468B2, “Methods for the treatment of a traumatic central nervous system injury” (priority 2005, dated 2013).

How the values were obtained:
acute TBI [1] = system: acute TBI
Method: This phase II, randomized, double blind, placebo-controlled clinical trial was conducted at an urban, level I trauma center. 100 adults presenting within 11 hours of a blunt TBI with a Glasgow Coma Scale score of 4-12 were enrolled with proxy consent. […] Blinded observers closely monitored patients for the occurrence of adverse events, and initial functional outcomes were assessed 30 days post-injury. The primary safety outcome was difference in adverse event rates, including mortality. The primary measure of activity was dichotomized Glasgow outcome scale extended (GOSE) 30 days post injury.
We also hoped to detect signals of activity.
According to the U.S. Food and Drug Administration, an “adverse event” is any undesirable medical event occurring to a subject in a clinical trial, whether or not related to the study drug. This includes events not seen at baseline, or worsened if present at baseline. “Serious adverse events” are defined as death, immediate risk of death, or suspicion that use or continued use would result in the patient's death, prolongation of existing hospitalization, persistent or significant disability/incapacity, or a congenital anomaly/birth defect.
These included any thromboembolic event (deep vein thrombosis, thrombophlebitis, ischemic myocardial infarction, pulmonary embolism, stroke or transient ischemic attack), elevated liver enzymes, temperature elevation, allergic reactions, and hyperglycemia. […] An independent internal safety monitor made the determination if an adverse event was associated with study treatment. Both the FDA and an independent NIH-appointed data safety monitoring board independently reviewed these determinations.
Interventions: Following proxy consent, patients were placed in one of 8 clinical subgroups defined by gender (male versus female), race (black versus all others) and TBI severity (moderate versus severe). […] This asymmetric approach was adopted at the request of our NIH-appointed DSMB to maximize the number of patients receiving study drug while maintaining blinding.
Whenever a patient was enrolled, the next kit in sequence for that subgroup was used to prepare infusions. […] The remaining vials were used to prepare 5 subsequent 12-hour infusions at the same standard rate of 10 mls/hour for a total of 3 days of treatment. Details of drug monitoring are reported elsewhere (Wright et al. (2005) J Clin Pharmacol 45(6):640-648).
Methods of Measurement: To assess drug safety, study personnel rounded daily to document the occurrence of adverse events (AEs) or serious adverse events (SAES). Hourly vital signs (blood pressure, heart rate, respiratory rate, temperature, and pulse oximetry), intracranial pressure readings, and other parameters (mean arterial pressure, cerebral perfusion pressure, and fluid balance), were abstracted from each patient's chart. Laboratory values were obtained from the hospital's information system, and concomitant medications and interventions were noted.
Whenever an SAE occurred, an independent board-certified neurosurgeon assessed its potential relationship to study treatment using pre-defined scale. SAEs were reported within 24 hours to the Institutional Review Board (IRB), our NIH-appointed Data Safety Monitoring Board (DSMB), and the U.S. Food and Drug Administration. All other adverse events were reported to on a weekly basis.
Primary Data Analysis—Treatment and placebo groups were compared with respect to a variety of demographic, historical and prehospital characteristics to ensure that important independent predictors of outcome were equally distributed. Next, the groups were compared with respect to rates of adverse and serious adverse events, using Fisher's exact test.

acute TBI [2] = assay: Phase II ProTECT trial: outcome variables 30 days post injury; format: in vivo, human
Source text: In addition to monitoring subjects for signs of harm, we hoped to detect signals of activity. […] For this preliminary study, our primary outcome of interest was Glasgow Outcome Scale Extended (GOSE) 30 days post-injury. […] Thirty days following each injury event, we assessed each patient's Glasgow Outcome Score Extended (GOSE) and Disability Rating Scale (DRS). Patients who were severely impaired were classified as “not testable”-a surrogate marker for a poor outcome. Reliability codes were used to record reasons for non-administration of a particular measure, such as physical impairment (e.g., hemiparesis) cognitive impairment (e.g., could not understand instructions), or intoxication. One-year outcomes will be reported at a later date. […] Our secondary aim was to look for signs of drug activity by assessing several measures of outcome. Our a priori primary measure of outcome was the Glasgow Outcome Scale-Extended ([…] et al. (1998) Journal of Neurotrauma 15(8):587-597). […] (1987) Journal of Neurosurgery 67(6):832-840) and 5) the Disability Rating Scale (DRS) (Hall et al. […] Variables determined to be independently associated with all-cause mortality or CNS related-death, such as iGCS (dichotomized into moderate versus severe), injury severity score and Marshall CT score were incorporated in a stepwise logistic regression analyses. […]

moderate to severe TBI = assay: Pilot phase II randomized double-blind trial of progesterone for traumatic brain injury, preliminary evaluation (Example 2); format: in vivo, human
Method: The administration protocol was carried out was described above in Example 1.
To determine if a therapeutic response was achieved, the following endpoints were monitored: • ICP reduction determined by calculating “therapeutic intensity level” (ICP-TIL); • duration of coma (injury to awaking); • mortality one-month post injury; • neurological outcome 1 month and 1 year post-injury, as determined by Glasgow outcome scale (GOS), Disability rating scale (DRS) and Galveston orientation and amnesia test (GOAT).
The administration protocol and pharmaceutical composition administered are described in detail in Example 1. Follow up regarding condition occurred at 30 days and 1 year.

[3] = Stability of progesterone solutions (HPLC-UV); format: physicochemical
Source text: For all stability testing, the method of […], et al. was used with minor modifications ([…], et al. (1999) Journal of Pharmaceutical & Biomedical Analysis, 19(5):803-8). The method was originally validated to assess the stability of medroxyprogesterone acetate and estradiol valerate tablets. It is an isocratic HPLC-UV method utilizing external standardization. A 5 micron, 4.6×250 mm BDS-Hypersil C-18 column (Keystone Scientific) was used and the analyses were completed on an Agilent 1100 model HPLC system with photodiode array detector. The mobile phase consisted of 40% 0.07M ammonium acetate buffer, pH 7.2 and 60% acetonitrile. Detection was at […]. […] Reproducibility as assessed by 10 injections of the same preparation on multiple different days was always less that 10%. […] A five point standard curve was run with each analysis.

acute TBI [4] = assay: Phase II ProTECT trial: physiological parameters during infusion; format: in vivo, human
Source text: Primary Data Analysis—Treatment and placebo groups were compared with respect to a variety of demographic, historical and prehospital characteristics to ensure that important independent predictors of outcome were equally distributed. Next, the groups were compared with respect to rates of adverse and serious adverse events, using Fisher's exact test. Generalized linear model analysis using a negative binomial distribution was used to compare rates of events that occurred multiple times per patient within the first 30 days (McCullagh and Nelder (1989) Generalized Linear Models (2nd ed, Chapman & Hill)). Then, group specific differences in 30-day outcomes. Fisher's exact test was used to analyze GOSE scores dichotomized into “good or moderate recovery” versus all other levels. Wilcoxon's rank sum test was used to compare group specific DRS scores. Mean and median durations of coma and post-traumatic amnesia were compared using student's t-test. All analyses were stratified on an a priori basis by brain injury severity (iGCS 4-8 (severe) versus iGCS 9-12 (moderate)). Longitudinal mixed effects models were used to analyze ICP-TIL as well as other hourly or daily clinical measurements from enrollment through treatment day 4.

[5] = Solubility of progesterone in carrier; format: physicochemical
clinical = details: human, in vivo
Method: Multiple blood samples were obtained from 11 female and 21 male trauma patients receiving PG and 1 female and 3 male patients receiving placebo infusions for 72 h. Values for CSS, CL, t1/2 and Vd were obtained using AUC(0-72) and post-infusion blood samples.
This study was approved by the Institutional Review Board of Emory University, the Drug Safety Monitoring Board (NINDS) and the FDA (IND #58,986). After obtaining informed consent, thirty-six patients meeting the inclusion criteria outlined as follows were studied. […] Inclusion criteria required that each patient be ≧18 years old, have a closed head injury arising from blunt trauma, have a moderate to severe brain injury (Index Glasgow Coma Score (GCS) 4-12) and arrive in the Emergency Department and obtain informed consent (from next-of-kin) in less than 11 hours post injury.
Aliquots of each solution were assayed for final concentration and sterility. […] Each kit contained six vials. […] The placebo kits were also formulated with 95% ethanol. Because of the alcohol concentration, doses of study drug were mixed with Intralipid® immediately prior to infusion. Each infusion dose was administered over 12 hours and repeated every 12 hours for a total of 72 hours. […] The dosing worksheet was also used to calculate the volume of study medication to be diluted in Intralipid® for each of the remaining infusion reservoirs at a standard rate of 10 cc/hr.
Nine (5 ml) samples were obtained at the following times during the infusion: pre-infusion (0), 4, 6, 12, 24, 36, 48, 60, and 72 hours. An additional five samples were obtained following cessation of infusion at: 0.5, 1, 2, 4 and 8 hours. Samples were allowed to clot, and then centrifuged. After that, the serum was removed and stored at −70° C. until analyzed.
The primary pharmacokinetic parameter, CL, was estimated as the ratio of the dose to area under the serum concentration-time curve (AUC). AUC's were calculated using the linear trapezoidal rule (Veng-Pedersen (1989) Clin Pharmacokinet, 17(6):424-40). The elimination phase rate constant, ke, was calculated from the serum concentration-time data following the termination of the infusion using iterative non-linear regression (WinNonlin®, Pharsight Corporation, Mountain View, Calif.). Volume of Distribution was estimated as the ratio of CL and ke. Css was estimated as the ratio of Dose and CL. Actual Css was defined as the concentration achieved when the slope of the serum concentration-time curve for three or more consecutive samples was not different from zero.
Predicted Css concentrations were calculated as the ratio of the infusion rate/clearance. Differences between predicted and measured Css were made using a ‘t’ test for repeated measures. A Bland-Altman analysis was conducted to assess the magnitude of any bias associated with this approach (Bland and Altman (1986) Lancet, 1(8476):307-10). Pharmacokinetic parameter comparisons between male and female were accomplished using a ‘t’ test for independent means. A p value of less than 0.05 was considered the minimum level for rejection of the null hypothesis.

CC(=O)[C@H]1CC[C@H]2[C@@H]3CCC4=CC(=O)CC[C@]4(C)[C@H]3CC[C@]12C [progesterone, pregn-4-ene-3,20-dione]
Death within 30 days (acute TBI [1]; 30-day adverse event rate): 13.0% | Acute respiratory distress syndrome (acute TBI [1]; both, human, in vivo, 30 days): 2.6% | Cardiac Arrhythmia (acute TBI [1]; both, human, in vivo, 30 days): 5.2% | Central nervous system infection (acute TBI [1]; both, human, in vivo, 30 days): 1.3% | Cholestatic Jaundice (acute TBI [1]; both, human, in vivo, 30 days): 6.5% | Fever (acute TBI [1]; both, human, in vivo, 30 days): 70.1% | Gastrointestinal Bleed (acute TBI [1]; both, human, in vivo, 30 days): 5.2% | Hyperglycemia-non DM (acute TBI [1]; both, human, in vivo, 30 days): 27.3% | Hypertension (acute TBI [1]; both, human, in vivo, 30 days): 11.7% | Hypotension (acute TBI [1]; both, human, in vivo, 30 days): 9.1% | Hypothermia (acute TBI [1]; both, human, in vivo, 30 days): 5.2% | Hypoxemia (acute TBI [1]; both, human, in vivo, 30 days): 11.7% | Increase Liver Enzyme (acute TBI [1]; both, human, in vivo, 30 days): 6.5% | Phlebitis at Injection Site (acute TBI [1]; both, human, in vivo, 30 days): 1.3% | Rash or Hives (acute TBI [1]; both, human, in vivo, 30 days): 2.6% | Seizures (acute TBI [1]; both, human, in vivo, 30 days): 5.2% | Sepsis (acute TBI [1]; both, human, in vivo, 30 days): 2.6% | Shock (acute TBI [1]; both, human, in vivo, 30 days): 2.6% | Suspected Pneumonia (acute TBI [1]; both, human, in vivo, 30 days): 11.7% | Syndrome of inappropriate ADH (acute TBI [1]; both, human, in vivo, 30 days): 1.3% | Tachycardia (acute TBI [1]; both, human, in vivo, 30 days): 24.7% | Thromboembolic Disease (acute TBI [1]; both, human, in vivo, 30 days): 3.9% | adverse events specifically ascribed to administration (acute TBI [1]; in vivo): two cases of superficial phlebitis at the IV site | deep vein thrombosis (acute TBI [1]; in vivo): Three patients | rise in mean temperature over the infusion interval, treatment by time interaction slope (acute TBI [1]; in vivo): −0.0055 | serious adverse events attributed to study drug (acute TBI [1]; in vivo): No serious adverse events were attributed to progesterone | Disability Rating Score: Total DRS, mean (acute TBI [2]; Index GCS = 9-12): 5 | DRS scores vs placebo (acute TBI [2]; moderately brain-injured patients): significantly better DRS scores | reduction in brain deaths (moderate to severe TBI; vs control): 60% | proportion of subjects experiencing brain death (moderate to severe TBI; vs group B, p=0.0295 Fisher's exact test): significantly lower proportion | stability of Intralipid solutions containing progesterone in 95% ethyl alcohol [3]: ≥ 24 h | stability of solution of progesterone in 95% ethyl alcohol ([3]; room temperature): up to 2 years | mean intracranial pressure levels (ICPs) trend (acute TBI [4]; first 4 days post-injury, subjects with monitors, not statistically significant): remained stable | Mean Duration of Pressures Exceeding Threshold Values: CPP < 60 (acute TBI [4]; in vivo): 6.9 h | Mean Duration of Pressures Exceeding Threshold Values: ICP > 25 (acute TBI [4]; in vivo): 5.0 h | Mean Duration of Pressures Exceeding Threshold Values: MAP < 70 (acute TBI [4]; in vivo): 2.5 h | Mean Duration of Pressures Exceeding Threshold Values: Systolic BP < 90 (acute TBI [4]; in vivo): 2.7 h | Mean Frequency of Pressures Exceeding Threshold Values: CPP < 60, Rate/1000 consecutive readings (acute TBI [4]; in vivo): 92.9 | Mean Frequency of Pressures Exceeding Threshold Values: ICP > 25, Rate/1000 consecutive readings (acute TBI [4]; in vivo): 70.2 | Mean Frequency of Pressures Exceeding Threshold Values: MAP < 70, Rate/1000 consecutive readings (acute TBI [4]; in vivo): 29.5 | Mean Frequency of Pressures Exceeding Threshold Values: Systolic BP < 90, Rate/1000 consecutive readings (acute TBI [4]; in vivo): 32.1 | Percent of Patients with Clinical Values Exceeding the Threshold: CPP < 60 (acute TBI [4]; in vivo): 48.7% | Percent of Patients with Clinical Values Exceeding the Threshold: ICP > 25 (acute TBI [4]; in vivo): 32.4% | Percent of Patients with Clinical Values Exceeding the Threshold: MAP < 70 (acute TBI [4]; in vivo): 29.0% | Percent of Patients with Clinical Values Exceeding the Threshold: Systolic BP < 90 (acute TBI [4]; in vivo): 29.0% | Cerebral Perfusion Pressure, mean (acute TBI [4]; infusion day 0): 70.3 mmHg | Cerebral Perfusion Pressure, mean (acute TBI [4]; infusion day 1): 73.4 mmHg | Fluid Balance, mean (acute TBI [4]; infusion day 1): 767.9 + mls | Cerebral Perfusion Pressure, mean (acute TBI [4]; infusion day 2): 75.9 mmHg | Fluid Balance, mean (acute TBI [4]; infusion day 2): 1189.5 + mls | Cerebral Perfusion Pressure, mean (acute TBI [4]; infusion day 3): 74.9 mmHg | Fluid Balance, mean (acute TBI [4]; infusion day 3): 802.0 + mls | Cerebral Perfusion Pressure, mean (acute TBI [4]; infusion day 4): 73.8 mmHg | Fluid Balance, mean (acute TBI [4]; infusion day 4): 818.7 + mls | solubility [5]: soluble only in alcohol | maintenance infusion rate to achieve target concentration of 450±100 ng/mL (clinical; both): approximately 0.8 mg/kg/h | clearance (clinical; both, CL): 28.8 mL/min/kg | half-life (clinical; both, terminal half-life): 1.78 ± 1 h | Vd (clinical; female): 1.33 L/kg | concentration at 0 h (clinical; female): 2.86 ± 1.37 ng/mL | clearance (clinical; female, CL): 31.3 mL/min/kg | Vd (clinical; male): 1.62 L/kg | concentration at 0 h (clinical; male): 2.53 ± 1.73 ng/mL | clearance (clinical; male, CL): 27.7 mL/min/kg | clearance (clinical; male, iv): 22.2 mL/min/kg
